“And” between values parts separate entries of the source, which are not always exact repeats. Equal entries are not always repeated.
Test system: T1, SLC6A8
T1 construct: V5; expressed in transfected cells; host or cells: Flp-In T-Rex 293 cells (Thermo Fisher), tetracycline-induced
Assay: SLC6A8 creatine transport assay
Type: cell-based, human
Details: for SLC6A8 transport (Fig S2 curve point): technical replicates
Protocol: Supplementary Materials and Methods
Flp-In T-Rex 293 cells (Thermo Fisher) were engineered to induciblyexpress either V5-tagged human SLC1A5, SLC6A8 or SLC7A5 co-expressed with myc-DDK-tagged SLC3A2. Cells expressing SLC 1A5 or SLC6A8 were maintained in either DMEM or DMEM/F12 media supplemented with 10% FBS, 100 U/mL penicillin, 100 μg/mL streptomycin, 200 μg/mL hygromycin, and 10 μg/mL blasticidin. For cells expressing SLC7A5/SLC3A2, the media was additionally supplemented with 300 μg/mL geneticin. All cell lines were maintained at 37°C and 5% CO2. For transport experiments, all cell lines were plated in poly-D-lysine-coated 96-well plates at a density of 35,000 cells/well. One day after plating, expression of SLC1A5, SLC6A8 or SLC7A5 was induced by adding tetracycline at a concentration of 1 μg/mL. Cells were induced for 24 h prior to transport assays. […]
SLC6A8 creatine transport assay
Following a 24 h induction with tetracycline, cells were washed with PBS before JNT -517 was added in 8-point concentration-response diluted in DMEM. 3-guanidinopropionic acid was used as a positive control (33)at a concentrationof 1 mM and 0.5% DMSO was used as a negative control. Cells were incubated in a cell culture incubator for 30 minutes at 37°C and 5% CO 2 before 15 mM D3-labeled creatine (CDN Isotopes) was added as a transport substrate. After a 15 min incubation at 37°C and 5% CO2, cells were washed once with PBS. Cells were lysed in H2O with 500 nM D5-labeled creatine (CDN isotopes) as an internal standard for 1 h at 37°C.
Following lysis, a standard curve of dilution of D3-creatine was added to the last row of each plate. Plates were centrifuged for 5 min and supernatant was diluted 1:2 in H 2O. Sample desalting was performed on a high throughput Agilent RapidFire-365. From the analytical injection plate, approximately 40 μL of sample was desalted through an Agilent RapidFire Cartridge Graphitic Carbon Type D (G9206A) using water with 0.1% ammo nium hydroxide as the loading mobile phase A for 3000 milliseconds at a flow rate of 1.5 mL/min. The sample was then eluted from the cartridge using 80% acetonitrile containing 0.1% ammonium hydroxide for […]
An Agilent Q -ToF 6545 was […]
used as the analyzing mass spectrometer via electrospray ionization. Capillary voltage was set to 3 kV, with a gas temperature of 350°C. Nitrogen drying gas was applied at 12 L/min with a pressure of 40 psi, and sheath gas was set to 375°C with a flow of 12 L/min. All data were collected with a positive ion polarity and stored as centroid data. Agilent MassHunter QToF was […]
used as the integration software for measuring area under the peak for both D3 -creatine and D5-creatine as the internal standard. A linear regression was used from a standard curve of D3 - creatine to calculate absolute concentration from peak area. […]
Microbeta2 microplate counter (PerkinElmer). […]

`NC(=O)N1CCC[C@@H](N(C(=O)NCc2ccc(OC(F)(F)F)cc2F)C2CC2)C1` [JNT-517] was tested, and the “SLC6A8 transport (Fig S2 curve point)” value (0.0160037 uM) was 97.4 and 85.6, the “SLC6A8 transport (Fig S2 curve point)” value (0.048011 uM) was 94 and 85 and the “SLC6A8 transport (Fig S2 curve point)” value (0.144033 uM) was 99.7 and 86.6. The “SLC6A8 transport (Fig S2 curve point)” value (0.432099 uM) was 93.6 and 86.7, the “SLC6A8 transport (Fig S2 curve point)” value (1.2963 uM) was 93.8 and 90.6 and the “SLC6A8 transport (Fig S2 curve point)” value (3.88889 uM) was 97.6 and 89.5. For the same molecule, the “SLC6A8 transport (Fig S2 curve point)” value (11.6667 uM) was 90.1 and 92.7, the “SLC6A8 transport (Fig S2 curve point)” value (35 uM) was 95.9 and 86.1 and the “inhibition of SLC6A8” value (concentrations up to 35 μM) was “did not inhibit”.

— article PMC11601558, “SLC6A19 inhibition facilitates urinary neutral amino acid excretion and lowers plasma phenylalanine” (JCI Insight, 2024)
